Converted amounts (≈) assume the structure as drawn. Where two headings read alike, the source gives them in different places.
How the values were obtained:
[1] = test system: Aspergillus fumigatus AF210; test: MIC, YAG medium, Aspergillus fumigatus AF210; assay type: cell-based; details: for MIC: Aspergillus fumigatus
Procedure, shortened: (§1)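 Yeast: RPMI + 2% glucose + 0.135M MOPS pH7.0, 1-2×10^3 cfu/ml, 35° C 24-48 h, OD485, MIC at >80% inhib. Aspergillus: YAG (1% glucose, 1% NH4Cl, 0.5% yeast extract), spores 1-2×10^4 cfu/ml, 35° C 24 h, MIC at >70% inhib. Range 50-0.05 mg/L.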

[2] = test system: Aspergillus niger; test: MIC, YAG medium, Aspergillus niger; assay type: cell-based; details: for MIC: Aspergillus niger, read-out: MIC A Niger 1
Procedure, shortened: as §1

[3] = test system: A Terreus 49; test: MIC, YAG medium, A Terreus 49; assay type: cell-based, Aspergillus terreus; details: for MIC: Aspergillus terreus, read-out: MIC A Terreus 49
Procedure, shortened: as §1

[4] = test system: Aspergillus fumigatus AF293; test: MIC, YAG medium, Aspergillus fumigatus AF293; assay type: cell-based; details: for MIC: Aspergillus fumigatus
Procedure, shortened: as §1

[5] = test system: Aspergillus flavus; test: MIC, YAG medium, Aspergillus flavus; assay type: cell-based; details: for MIC: Aspergillus flavus, read-out: MIC A Flavus 01
Procedure, shortened: as §1

[6] = test system: Aspergillus terreus; test: MIC, YAG medium, Aspergillus terreus; assay type: cell-based; details: for MIC: Aspergillus terreus, read-out: MIC A Terreus 4
Procedure, shortened: as §1

[7] = AF210, YAG medium, read-out: MIC A Fum. 210
[8] = AF293, YAG medium, read-out: MIC A Fum. 293

Compound | MIC [1, 7] [µg/mL] | MIC ([2]; YAG medium) [µg/mL] | MIC ([3]; YAG medium) [µg/mL] | MIC [4, 8] [µg/mL] | MIC ([5]; YAG medium) [µg/mL] | MIC ([6]; YAG medium) [µg/mL] | further results
O=C(Nc1ccc(F)cc1F)C(=O)c1c(-c2ccccc2Cl)cc2ccccn12 [Example 277, 2-[2-(2-Chloro-phenyl)-indolizin-3-yl]-N-(2,4-difluoro-phenyl)-2-oxo-acetamide] | 0.05 (≈ 0.122 µM) | 0.03 (≈ 0.073 µM) | 0.2 (≈ 0.487 µM) | 0.4 (≈ 0.974 µM) | 0.03 (≈ 0.073 µM) | 0.015 (≈ 0.0365 µM) | 
CC(=O)c1cccc(NC(=O)C(=O)c2c(-c3ccccc3)cc3ccccn23)c1 [Example 267, N-(3-Acetyl-phenyl)-2-oxo-2-(2-phenyl-indolizin-3-yl)-acetamide] | 0.8 (≈ 2.09 µM) | 0.4 (≈ 1.05 µM) | 0.05 (≈ 0.131 µM) | 0.4 (≈ 1.05 µM) | 0.05 (≈ 0.131 µM) | 0.1 (≈ 0.261 µM) | 
Cc1noc(C)c1-c1ccc(NC(=O)C(=O)c2c(-c3ccccc3)cc3ccccn23)cc1 [Example 287, N-[4-(3,5-Dimethyl-isoxazol-4-yl)-phenyl]-2-oxo-2-(2-phenyl-indolizin-3-yl)-acetamide] | 0.1 (≈ 0.23 µM) | 0.015 (≈ 0.0344 µM) | 0.008 (≈ 0.0184 µM) | 0.05 (≈ 0.115 µM) | 0.03 (≈ 0.0689 µM) | 0.03 (≈ 0.0689 µM) | 
Cc1cccc(NC(=O)C(=O)c2c(-c3ccccc3)cc3ccccn23)c1 [Example 206, 2-Oxo-2-(2-phenyl-indolizin-3-yl)-N-m-tolyl-acetamide] | 0.062 (≈ 0.175 µM) | 0.015 (≈ 0.0423 µM) | 0.008 (≈ 0.0226 µM) | 0.062 (≈ 0.175 µM) | 0.008 (≈ 0.0226 µM) | 0.004 (≈ 0.0113 µM) | 
COc1ccc(NC(=O)C(=O)c2c(-c3ccccc3)cc3ccccn23)c(OC)c1 [Example 145, N-(2,4-Dimethoxy-phenyl)-2-oxo-(2-phenyl-indolizin-3-yl)-acetamide] | 0.5 (≈ 1.25 µM) | 0.031 (≈ 0.0774 µM) | 0.004 (≈ 0.00999 µM) | 0.5 (≈ 1.25 µM) | 0.031 (≈ 0.0774 µM) | 0.031 (≈ 0.0774 µM) | 
CC1(c2ccc(NC(=O)C(=O)c3c(-c4ccccc4)cc4ccccn34)cc2)OCCO1 [Example 264, N-[4-(2-Methyl-[1,3]dioxolan-2-yl)-phenyl]-2-oxo-2-(2-phenyl-indolizin-3-yl)-acetamide] | 0.05 (≈ 0.117 µM) | 0.05 (≈ 0.117 µM) | 0.008 (≈ 0.0188 µM) | 0.05 (≈ 0.117 µM) | 0.05 (≈ 0.117 µM) | 0.015 (≈ 0.0352 µM) | 
C[S+]1CCN(c2ccc(NC(=O)C(=O)c3c(-c4ccccc4)cc4ccccn34)cc2)CC1.[I-] [Example 299, 1-Methyl-4-{4-[2-oxo-2-(2-phenyl-indolizin-3-yl)-acetylamino]-phenyl}-thiomorpholin-1-ium iodide] | 6.25 | 12.5 | 1.6 | 6.25 | 3.1 | 3.1 | 
O=C(Nc1ccc(Br)cc1)C(=O)c1c(-c2ccccc2)cc2ccccn12 [Example 204, N-(4-Bromo-phenyl)-2-oxo-2-(2-phenyl-indolizin-3-yl)-acetamide] | 0.25 (≈ 0.596 µM) | 0.031 (≈ 0.0739 µM) | 0.015 (≈ 0.0358 µM) | 0.25 (≈ 0.596 µM) | 0.031 (≈ 0.0739 µM) | 0.015 (≈ 0.0358 µM) | 
O=C(Nc1ccc(F)cc1F)C(=O)c1c(-c2ccc(F)cc2F)cc2ccccn12 [Example 265, N-(2,4-Difluoro-phenyl)-2-[2-(2,4-difluoro-phenyl)-indolizin-3-yl]-2-oxo-acetamide] | > 50 | 0.008 (≈ 0.0194 µM) | 0.06 (≈ 0.146 µM) | > 50 | 0.1 (≈ 0.243 µM) | 0.015 (≈ 0.0364 µM) | 
CC(C)(C#N)c1cccc(NC(=O)C(=O)c2c(-c3ccccc3)cc3ccccn23)c1 [Example 228, N-[3-(Cyano-dimethyl-methyl)-phenyl]-2-oxo-2-(2-phenyl-indolizin-3-yl)-acetamide] | 0.031 (≈ 0.0761 µM) | 0.015 (≈ 0.0368 µM) | 0.002 (≈ 0.00491 µM) | 0.031 (≈ 0.0761 µM) | 0.004 (≈ 0.00982 µM) | 0.004 (≈ 0.00982 µM) | 
CCN(CC)C(=O)Oc1cccc(NC(=O)C(=O)c2c(-c3ccccc3)cc3ccccn23)c1 [Example 266, Diethyl-carbamic acid 3-[2-oxo-2-(2-phenyl-indolizin-3-yl)-acetylamino]-phenyl ester] |  |  |  |  |  |  | MIC ([1]; AF210, read-out: MIC A Fum. 210): 1.6 µg/mL (≈ 3.51 µM); MIC [2]: 6.25 µg/mL (≈ 13.7 µM); MIC [3]: 0.2 µg/mL (≈ 0.439 µM); MIC ([4]; AF293, read-out: MIC A Fum. 293): 0.8 µg/mL (≈ 1.76 µM); MIC [5]: 0.2 µg/mL (≈ 0.439 µM); MIC [6]: 0.2 µg/mL (≈ 0.439 µM)
O=C(Nc1ccc(Cl)cc1)C(=O)c1c(-c2ccccc2)cc2ccccn12 [Example 281, N-(4-Chloro-phenyl)-2-oxo-2-(2-phenyl-indolizin-3-yl)-acetamide] | 0.12 (≈ 0.32 µM) | 0.031 (≈ 0.0827 µM) | 0.008 (≈ 0.0213 µM) | 0.25 (≈ 0.667 µM) | 0.031 (≈ 0.0827 µM) | 0.031 (≈ 0.0827 µM) | 
CN(C)c1ccc(NC(=O)C(=O)c2c(-c3cccnc3)cc3ccccn23)cn1 [Example 253, N-(6-Dimethylamino-pyridin-3-yl)-2-oxo-2-(2-pyridin-3-yl-indolizin-3-yl)-acetamide] | > 50 | > 50 | 12.5 (≈ 32.4 µM) | > 50 | 25 (≈ 64.9 µM) | 12.5 (≈ 32.4 µM) | 
Cc1ccc(NC(=O)C(=O)c2c(-c3ccccc3)cc3ccccn23)cc1 [Example 135, 2-Oxo-2-(2-phenyl-indolizin-3-yl)-N-p-tolyl-acetamide] | 0.062 (≈ 0.175 µM) | 0.015 (≈ 0.0423 µM) | 0.002 (≈ 0.00564 µM) | 0.12 (≈ 0.339 µM) | 0.015 (≈ 0.0423 µM) | 0.008 (≈ 0.0226 µM) | 
COc1ccccc1NC(=O)C(=O)c1c(-c2ccccc2)cc2ccccn12 [Example 137, N-(2-Methoxy-phenyl)-2-oxo-2-(2-phenyl-indolizin-3-yl)-acetamide] | 0.5 (≈ 1.35 µM) | 0.062 (≈ 0.167 µM) | 0.06 (≈ 0.162 µM) | 0.2 (≈ 0.54 µM) | 0.125 (≈ 0.337 µM) | 0.06 (≈ 0.162 µM) | 
O=C(Nc1ccc(Nc2ncccn2)cc1)C(=O)c1c(-c2ccccc2)cc2ccccn12 [Example 276, 2-Oxo-2-(2-phenyl-indolizin-3-yl)-N-[4-(pyrimidin-2-ylamino)-phenyl]-acetamide] | 0.2 (≈ 0.461 µM) | 0.05 (≈ 0.115 µM) | 0.015 (≈ 0.0346 µM) | 0.1 (≈ 0.231 µM) | 0.05 (≈ 0.115 µM) | 0.05 (≈ 0.115 µM) | 
COc1ccc(NC(=O)C(=O)c2c(-c3ccc(C)cc3)cc3ccccn23)cc1 [Example 238, N-(4-Methoxy-phenyl)-2-oxo-2-(2-p-tolyl-indolizin-3-yl)-acetamide] | 0.25 (≈ 0.65 µM) | 0.015 (≈ 0.039 µM) | 0.008 (≈ 0.0208 µM) | 0.5 (≈ 1.3 µM) | 0.015 (≈ 0.039 µM) | 0.015 (≈ 0.039 µM) | 
COc1ccc(NC(=O)C(=O)c2c(-c3cccs3)cc3ccccn23)c(OC)c1 [Example 166, N-(2,4-Dimethoxy-phenyl)-2-oxo-2-(2-thiophen-2-yl-indolizin-3-yl)-acetamide] | 3.1 (≈ 7.63 µM) | 0.25 (≈ 0.615 µM) | 0.062 (≈ 0.153 µM) | 1.6 (≈ 3.94 µM) | 0.12 (≈ 0.295 µM) | 0.12 (≈ 0.295 µM) | 
Cc1ccc(NC(=O)C(=O)c2c(-c3ccc(F)cc3)cc3ccccn23)cc1 [Example 156, 2-[2-(4-Fluoro-phenyl)-indolizin-3-yl]-2-oxo-N-p-tolyl-acetamide] | 0.25 (≈ 0.671 µM) | 0.031 (≈ 0.0832 µM) | 0.015 (≈ 0.0403 µM) | 0.25 (≈ 0.671 µM) | 0.015 (≈ 0.0403 µM) | 0.031 (≈ 0.0832 µM) | 
COc1ccc(NC(=O)C(=NOCCCC(=O)O)c2c(-c3ccccc3)cc3ccccn23)cc1 (mixture of isomers) [Example 297, 4-[1-(4-Methoxy-phenylcarbamoyl)-1-(2-phenyl-indolizin-3-yl)-meth-(E/Z)-ylideneaminooxy]-butyric acid] |  |  |  |  |  |  | MIC A Fum. 210 ([1]; YAG medium): 12.5 mg/L; MIC A Niger 1 ([2]; YAG medium): 1.6 mg/L; MIC A Terreus 49 ([3]; YAG medium): 0.4 mg/L; MIC A Fum. 293 ([4]; YAG medium): 12.5 mg/L; MIC A Flavus 01 ([5]; YAG medium): 0.4 mg/L; MIC A Terreus 4 ([6]; YAG medium): 0.8 mg/L
Cn1ccc2cc(NC(=O)C(=O)c3c(-c4ccccc4)cc4ccccn34)ccc21 [Example 256, N-(1-Methyl-1H-indol-5-yl)-2-oxo-2-(2-phenyl-indolizin-3-yl)-acetamide] | 0.015 (≈ 0.0381 µM) | 0.03 (≈ 0.0762 µM) | 0.001 (≈ 0.00254 µM) | 0.015 (≈ 0.0381 µM) | 0.04 (≈ 0.102 µM) | 0.001 (≈ 0.00254 µM) | 
COc1ccc(NC(=O)C(=O)c2c(-c3ccc(F)cc3)cc3ccccn23)cc1 [Example 155, 2-[2-(4-Fluoro-phenyl)-indolizin-3-yl]-N-(4-methoxy-phenyl)-2-oxo-acetamide] | 0.12 (≈ 0.309 µM) | 0.12 (≈ 0.309 µM) | 0.008 (≈ 0.0206 µM) | 0.5 (≈ 1.29 µM) | 0.03 (≈ 0.0772 µM) | 0.031 (≈ 0.0798 µM) | 
N#Cc1ccc(NC(=O)C(=O)c2c(-c3ccccc3)cc3ccccn23)cc1 [Example 150, N-(4-Cyano-phenyl)-2-oxo-2-(2-phenyl-indolizin-3-yl)-acetamide] | 1.6 (≈ 4.38 µM) | 0.25 (≈ 0.684 µM) | 0.12 (≈ 0.328 µM) | 1.6 (≈ 4.38 µM) | 0.125 (≈ 0.342 µM) | 0.5 (≈ 1.37 µM) | 
COc1ccc(NC(=O)C(=O)c2c(-c3cccs3)cc3ccccn23)cc1 [Example 148, N-(4-Methoxy-phenyl)-2-oxo-2-(2-thiophen-2-yl-indolizin-3-yl)-acetamide] | 0.12 (≈ 0.319 µM) | 0.062 (≈ 0.165 µM) | 0.008 (≈ 0.0213 µM) | 0.12 (≈ 0.319 µM) | 0.008 (≈ 0.0213 µM) | 0.008 (≈ 0.0213 µM) | 
COC(=O)c1csc(NC(=O)C(=O)c2c(-c3ccccc3)cc3ccccn23)c1 [Example 154, 5-[2-Oxo-2-(2-phenyl-indolizin-3-yl)-acetylamino]-thiophene-3-carboxylic acid methyl ester] | 1.6 (≈ 3.96 µM) | 0.05 (≈ 0.124 µM) | 0.12 (≈ 0.297 µM) | 1.6 (≈ 3.96 µM) | 0.25 (≈ 0.618 µM) | 0.8 (≈ 1.98 µM) | 
